Here are results for 33 compounds from USRE39198E1, “Heteroarylpiperidines, pyrrolidines and piperazines and their use as antipsychotics and analgesics” (Aventis Pharmaceuticals Inc., priority 1989, dated 2006).

As to `O=C1c2cccc(F)c2C(=O)N1CCN1CCC(c2noc3cc(F)ccc23)CC1` [Example 155, N-[2-[4-(6-Fluoro-1,2-benzisoxazol-3-yl)-1-piperidinyl]ethyl]-3-fluorophthalimide], the melting point (as a rule, the temperature of the solid-liquid transition) lay in the range of 142 to 143 °C.

`CC(=O)c1ccc(OCCCN2CCC(c3nsc4cc(F)ccc34)CC2)c(O)c1` [Example 144, 1-[4-[3-[4-(6-Fluoro-1,2-benzisothiazol-3-yl)-1-piperidinyl]propoxy]-3-hydroxyphenyl]ethanone] came in with a melting point of 135 to 137 °C.

The compound `O=C1c2ccccc2C(=O)N1CCN1CCC(c2noc3cc(F)ccc23)CC1` [N-[2-[4-(6-Fluoro-1,2-benzisoxazol-3-yl)-1-piperidinyl]ethyl]phthalimide] had a melting point of 148 to 149 °C.

`O=C1c2ccccc2C(=O)N1CCCCN1CCC(c2noc3cc(F)ccc23)CC1` [Example 98, N-[4-[4-(6-Fluoro-1,2-benzisoxazol-3-yl)-1-piperidinyl]butyl]phthalimide] gave a melting point of 144 to 146 °C.

Take `O=C1c2cc(Cl)c(Cl)cc2C(=O)N1CCN1CCC(c2noc3cc(F)ccc23)CC1` [Example 151, N-[2-[4-(6-Fluoro-1,2-benzisoxazol-3-yl)-1-piperidinyl]ethyl]-4,5-dichlorophthalimide]: the melting point is 132 to 134 °C.

With `CC(=O)OCCNCCN1CCC(c2noc3cc(F)ccc23)CC1.O=C(O)/C=C/C(=O)O`, the melting point is 116 to 118 °C.

Compound `COC(C)c1ccc(OCCCN2CCC(c3noc4cc(F)ccc34)CC2)c(O)c1` (stereo not drawn) [Example 139, 3-[1-[3-[4-(1-Methoxyethyl)-2-hydroxyphenoxyl]propyl]-4-piperidinyl]-6-fluoro-1,2-benzisoxazole] returned a melting point of 98 to 100 °C.

`Fc1ccc2c(C3CCN(CC4COc5ccccc5O4)CC3)noc2c1` (stereo not drawn) [Example 91, 2-[4-(6-Fluoro-1,2-benzisoxazol-3-yl)-1-piperidinyl]methyl-1,4-benzodioxan] had a melting point of 86 to 87 °C.

Take `CC(=O)OCCCCN1CCC(c2noc3cc(F)ccc23)CC1.O=C(O)/C=C/C(=O)O`: the melting point is 142 to 143 °C.

For `Fc1ccc2c(C3CCN(CCCOc4ccc5[nH]ccc5c4)CC3)noc2c1` [Example 140, 6-Fluoro-3-[1-[3-[(1H-indol-5-yl)oxy]propyl]-4-piperidinyl]-1,2-benzisoxazole], the melting point lay within 118 to 121 °C.

In turn, `Cc1ccc2c(c1)C(=O)N(CCN1CCC(c3noc4cc(F)ccc34)CC1)C2=O` [Example 157, N-[2-[4-(6-Fluoro-1,2-benzisoxazol-3-yl)-1-piperidinyl]ethyl]-4-methylphthalimide] had a melting point of 138 to 140 °C.

`CC(C)(O)CCN1CCC(c2noc3cc(F)ccc23)CC1.O=C(O)/C=C/C(=O)O` gave a melting point of 156 to 158 °C.

`CC(=O)c1ccc2c(c1)oc(=O)n2CCCN1CCC(c2noc3cc(F)ccc23)CC1` [Example 94, N-[3-[4-(6-Fluoro-1,2-benzisoxazol-3-yl)-1-piperidinyl]propyl]-6-acetyl-2-benzoxazolinone] displayed a melting point of 152 to 154 °C.

Consider `COc1cc(C(C)=O)ccc1OCCCN1CCC(c2n[nH]c3ccccc23)CC1` [Example 14, 1-[4-[3-[4-(1H-Indazol-3-yl)-1-piperidinyl]propoxy]-3-methoxyphenyl]ethanone], for which the melting point was in the range of 171 to 173 °C.

In turn, `C[C@@H](CO)CN1CCC(c2noc3cc(F)ccc23)CC1.O=C(O)/C=C/C(=O)O` registered a melting point of 114 to 115 °C.

`COc1cc(C(C)=O)ccc1OCCCCN1CCN(c2n[nH]c3cc(Cl)ccc23)CC1` [Example 36, 1-[4-[4-[4-(6-Chloro-1H-indazol-3-yl)-1-piperazinyl]butoxy]-3-methoxyphenyl]ethanone]: the melting point lay within 189 to 191 °C.

Compound `Cl.Cl.NCCCCN1CCC(c2noc3cc(F)ccc23)CC1` yielded a melting point of 234 to 237 °C.

With `Cl.O=C1[C@H]2CCCC[C@H]2C(=O)N1CCCN1CCC(c2noc3cc(F)ccc23)CC1`, the melting point lay within 242 to 245 °C.

In turn, `COc1cc(C(C)=O)ccc1OCCCN1CCN(c2n[nH]c3cc(F)ccc23)CC1` [Example 12, 1-[4-[3-[4-(6-Fluoro-1H-indazol-3-yl)-1-piperazinyl]-propoxy]-3-methoxyphenyl]ethanone] returned a melting point of 135 to 137 °C.

`Nc1cccc(OCCCN2CCC(c3noc4cc(F)ccc34)CC2)c1` [Example 71, 3-[3-[4-(6-Fluoro-1,2-benzisoxazol-3-yl)-1-piperidinyl]propoxy]aniline] gave a melting point of 115 to 117 °C.

In turn, `COc1cc(C(C)=O)ccc1OC/C=C/CN1CCC(c2noc3cc(F)ccc23)CC1` [Example 81, (E)-1-[4-[[4-[4-(6-Fluoro-1,2-benzisoxazol-3-yl)-1-piperidinyl]-2-butenyl]oxy]-3-methoxyphenyl]ethanone] returned a melting point of 91 to 93 °C.

Consider `COc1cc(C(C)O)ccc1OCCCN1CCC(c2nsc3cc(F)ccc23)CC1` (stereo not drawn) [Example 145, 4-[3-[4-(6-Fluoro-1,2-benzisothiazol-3-yl)-1-piperidinyl]propoxy]-3-methoxy-alpha-methylbenzenemethanol], for which the melting point was 113 to 115 °C.

In turn, `O=C1c2c(Cl)ccc(Cl)c2C(=O)N1CCN1CCC(c2noc3cc(F)ccc23)CC1` [Example 153, N-[2-[4-(6-Fluoro-1,2-benzisoxazol-3-yl)-1-piperidinyl]ethyl]-3,6-dichlorophthalimide] came in with a melting point of 163 to 164 °C.

As to `CC(=O)NCCN1CCC(c2noc3cc(F)ccc23)CC1.O=C(O)/C=C/C(=O)O`, the melting point lay in the range of 132 to 133 °C.

As for `CC(=O)c1ccc(OCc2ccccc2)c(OC/C=C/CN2CCC(c3noc4cc(F)ccc34)CC2)c1` [Example 85, (E)-1-[3-[[4-[4-(6-Fluoro-1,2-benzisoxazol-3-yl)-1-piperidinyl]-2-butenyl]oxy]-4-benzyloxyphenyl]ethanone], the melting point lay in the range of 124 to 125 °C.

For `CC(=O)OCCN1CCC(c2noc3cc(F)ccc23)CC1.O=C(O)/C=C/C(=O)O`, the melting point was 154 to 155 °C.

`Cl.Cl.NCCCN1CCC(c2noc3cc(F)ccc23)CC1` [1-(3-Aminopropyl)-4-(6-fluoro-1,2-benzisoxazol-3-yl)-piperidine dihydrochloride] came in with a melting point of 231 to 234 °C.

Compound `O=C(O)/C=C/C(=O)O.OCCCCN1CCC(c2noc3cc(F)ccc23)CC1` had a melting point of 131 to 132 °C.

For the compound `CCOC(C)c1ccc(OCCCN2CCC(c3noc4cc(F)ccc34)CC2)c(OC)c1.Cl` (stereo not drawn), the melting point was 139 to 141 °C.

In turn, `Fc1ccc2c(C3CCN(CCC4OCCCO4)CC3)noc2c1.O=C(O)/C=C/C(=O)O` yielded a melting point of 161 to 162 °C.

Consider `CC(=O)c1ccc(O)c(OC/C=C/CN2CCC(c3noc4cc(F)ccc34)CC2)c1.Cl`, for which the melting point lay within 208 to 210 °C.

On to `CCOC(=O)CCN1CCC(c2noc3cc(F)ccc23)CC1.O=C(O)/C=C/C(=O)O`, for which the melting point lay within 135 to 136 °C.

`COc1ccc(NC(C)=O)cc1OCCCN1CCC(c2nsc3cc(F)ccc23)CC1` [Example 74, N-[3-[3-[4-(6-Fluoro-1,2-benzisothiazol-3-yl)-1-piperidinyl]propoxy]-4-methoxyphenyl]acetamide]: the melting point is 109 to 111 °C.
